This passage reports GI50 and TGI results from PubChem BioAssay (NCI).

Common to all, as to assay: DTP human tumour cell line panel, 48 h
Test [1] concerns COLO 205 colon.
Test [2] concerns EKVX NSCLC.
Test [3] deals with HOP-92 NSCLC.
The subject of test [4] is M14 melanoma.
Test [5] has as its system NCI-H23 lung.
In test [6] the test system is NCI-H460 lung.
Test [7] has as its system OVCAR-8 ovarian.
Test [8] concerns SF-268 CNS.
Test [9] has as its system SK-MEL-5 melanoma.
In test [10] the test system is U251 CNS.

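Method: 48-hour compound exposure of cells in 96-well plates, five concentrations, linear interpolation of endpoints. The concentration for 50% growth inhibition is given as GI50. TGI: concentration producing complete growth inhibition.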

For orientation: GI50 means the concentration at which growth is held to half of that of the control. Broadly, the TGI is the concentration at which net growth stops. Read a high TGI as less potent growth arrest. Regarding `CCOC(=O)N1CCN(C(=O)c2ccc(C(F)(F)F)nc2Nc2cc(Cl)ccc2C)CC1`, the GI50 in test [1] is 18900 nM; in [2] it was 23200 nM; in [3], 10200 nM; in test [4], 23700 nM; in [5] it was 14100 nM; in test [6], 16200 nM. Also, the GI50 in test [7] is 30200 nM; in [8], 74800 nM; in [9], 10100 nM; in test [10] it was 27100 nM. Further, the total growth inhibition concentration (TGI) in [1] is 51.6 µM; in test [2], more than 100 µM; in test [3], more than 100 µM; in [4], more than 100 µM; in test [5], 74.5 µM; in [6] it was 33.6 µM. Further, the TGI in test [7] was more than 100 µM; in test [8] it was more than 100 µM; in [9] it was 23.2 µM; in test [10], more than 100 µM.
With `COC(=O)[C@@H](NC(=O)[C@@H](OC)[C@@H]1Cc2cc3cc(OC4CC(OC5CC(O)C(O)C(C)O5)C(O)C(C)O4)c(C)c(O)c3c(O)c2C(=O)[C@H]1OC1CC(OC2CC(OC3CC(C)(O)C(O)C(C)O3)C(O)C(C)O2)C(O)C(C)O1)C(C)C` (stereo not given in full), the GI50 in [1] is 137 nM; in test [2], 162 nM; in test [3], 101 nM; in test [4], 147 nM; in test [5] it was 144 nM; in test [6], 111 nM. Moreover, the GI50 was 150 nM in [7], 172 nM in test [8], 72.7 nM in test [9] and 106 nM in [10]. Further, the TGI in [1] is more than 32.5 µM; in test [2], more than 32.5 µM; in [3] it was 1.13 µM; in test [4] it was more than 32.5 µM; in test [5], 13.5 µM; in test [6], 5.7 µM. Moreover, the TGI was more than 32.5 µM in test [7], more than 32.5 µM in test [8], 0.408 µM in test [9] and 1.6 µM in [10].
Take `O=C(CCC/C(CC(=O)c1ccc(Br)cc1)=N\O)Nc1ccccc1`: the TGI in [1], in [2], in test [3], in test [4], in test [5] and in [6] was more than 100 µM each time. For the same compound, the TGI in [7], in [8], in test [9] and in test [10] was more than 100 µM in each case.
Take `O=C(CN(C1CCCCC1)C1CCCCC1)Nc1ccc(S(=O)(=O)c2ccc(NC(=O)CN(C3CCCCC3)C3CCCCC3)cc2)cc1`: the GI50 was 280 nM in test [1]; 1410 nM in [2]; 1390 nM in test [3]; 373 nM in test [4]; 1020 nM in test [5]; 382 nM in test [6]. In addition, the GI50 was 701 nM in test [7], 337 nM in [8], 395 nM in [9] and 234 nM in [10]. The TGI in test [1] came to 0.841 µM; in [2], 2.88 µM; in [3], 2.93 µM; in test [4], 1.69 µM; in test [5], 2.61 µM; in [6], 1.63 µM. Besides, the TGI in [7] is 3.71 µM; in test [8], 1.6 µM; in test [9], 1.65 µM; in [10], 0.742 µM.
Turning to `CCCCCCCCCc1cc(=O)c2c(O)cccc2o1`, the TGI in test [1], in test [2], in test [3], in test [4], in test [5] and in [6] was more than 100 µM in each case. The TGI was more than 100 µM in test [7], more than 100 µM in test [8], 46.6 µM in test [9] and more than 100 µM in [10].
Consider `N#CC(/C(=N/NC(=O)C(=O)NN)C(=O)NC12CC3CC(CC(C3)C1)C2)c1ccccc1` (stereo not given), for which the TGI in [1], in test [2], in test [3], in test [4], in [5] and in test [6] was more than 100 µM in each case. For the same compound, the TGI in test [7], in test [8], in test [9] and in [10] was more than 100 µM in each case.
For `CN(C)Cc1c[nH]c2c1C(=O)c1c(c(O)c3ccccc3c1O)C2=O`, the GI50 was 38.6 nM in test [1]; 603 nM in test [2]; 13600 nM in [3]; 17200 nM in test [4]; 9340 nM in test [5]; 3540 nM in test [6]. Moreover, the GI50 was 8560 nM in test [7], 8240 nM in test [8], 11200 nM in test [9] and 5560 nM in test [10]. Further, the TGI in test [1] was more than 100 µM; in test [2], 5.28 µM; in [3], 31.7 µM; in [4] it was 40.4 µM; in test [5] it was 24.9 µM; in test [6] it was 16 µM. Moreover, the TGI in test [7] came out at 29.8 µM; in [8] it was 23.9 µM; in test [9] it was 23.3 µM; in [10], 18.7 µM.
As to `CCN(CC)CC(C)(C)C(=O)/C=C/c1ccc(Cl)c(Cl)c1`, the GI50 is 1700 nM in [1]; 1690 nM in test [2]; 418 nM in test [3]; 1660 nM in test [4]; 1900 nM in test [5]; 2070 nM in test [6]. Further, the GI50 in test [7] was 1880 nM; in test [8], 1560 nM; in test [9], 1840 nM; in [10] it was 1710 nM. For the same compound, the concentration for total growth inhibition (TGI) is 3.34 µM in [1]; 3.1 µM in [2]; 1.85 µM in test [3]; 3.39 µM in test [4]; 4.17 µM in test [5]; 4.36 µM in test [6]. Moreover, the total growth inhibition concentration (TGI) was determined as 3.91 µM in test [7], 3.22 µM in test [8], 3.29 µM in [9] and 3.15 µM in test [10].
